Source: the NIST ThermoML archive (doi:10.1016/j.fluid.2006.10.016)
Numbers after ± are expanded uncertainties.

Assay: activity coefficient (dimensionless); of the first substance listed, at infinite dilution; xn = mol fraction of the nth substance listed
Conditions: Liquid, x1 = 0

Row | Structure (SMILES) | activity coefficient (297 K) | activity coefficient (307 K) | activity coefficient (316 K) | activity coefficient (325 K) | activity coefficient (335 K) | activity coefficient (344 K)
1 | CCCCCCCCC [nonane] + CCCC[n+]1ccc(C)cc1.F[B-](F)(F)F | 309 ± 59 | 275 ± 52 | 241 ± 46 | 229 ± 43 | 201 ± 38 | 201 ± 38
2 | CCCCCCCCCC [decane] + CCCC[n+]1ccc(C)cc1.F[B-](F)(F)F | 491 ± 94 | 430 ± 82 | 389 ± 74 | 359 ± 68 | 320 ± 61 | 283 ± 54
3 | CCCCCCCC [octane] + CCCC[n+]1ccc(C)cc1.F[B-](F)(F)F | 182 ± 34 | 170 ± 32 | 158 ± 30 | 142 ± 27 | 124 ± 23 | 119 ± 22
